Measurements published in article PMC10458253, “Unraveling the In Vitro Toxicity Profile of Psychedelic 2C Phenethylamines and Their N-Benzylphenethylamine (NBOMe) Analogues” (Pharmaceuticals, 2023).
Counter-ions that a name gives are not always drawn.

Columns and labels:
[1] = pH 7.4; cited from earlier work
[2] = PAMPA-BBB permeability assay
Excerpt: In the present study we used a Parallel Artificial Membrane Permeation Assay (PAMPA) with a membrane mimicking the BBB phospholipidic composition (PAMPA-BBB) to evaluate and predict passive, transcellular permeability of the mescaline-NBOMe, 25B-NBOMe and 25N-NBOMe drugs.
The PiON inc database software was used for data analysis.

HepG2 cells = experiment: Intracellular ROS (DCFH-DA probe), HepG2; assay type: cell-based; conditions: HepG2, positive control, 200 µM, 24 h, vs control cells (0 µM)
Protocol: (§1) ROS production was evaluated by using the well-known membrane permeable fluorescent probe 2′,7′-dichlorofluorescein diacetate (DCFH-DA). Both cell lines were seeded in 96-well cell culture plates, and pre-incubated with 10 µM DCFH-DA, protected from light, at 37 °C, in a 5% CO2–95% air atmosphere. After 30 min, DCFH-DA was removed, and the cells were exposed to the drugs (0–500 µM for SH-SY5Y cells and 0–1000 µM for HepG2 cells), at 37 °C, in a 5% CO2–95% air atmosphere. Subsequently, after 24 h of exposure, the fluorescence was measured at 485 nm excitation and 530 nm emission wavelengths in a multi-well plate reader (PowerWaveX BioTek Instruments, Winooski, VT, USA). Additionally, tert-butyl hydroperoxide (200 µM, 24 h) was used as a positive control for ROS overproduction. The results were expressed as percentage of control cells. At least four independent experiments were performed, in triplicate.

[3] = system: differentiated SH-SY5Y cells; experiment: Intracellular ROS (DCFH-DA probe), differentiated SH-SY5Y; assay type: cell-based; conditions: positive control, 200 µM, 24 h, vs negative control cells
Protocol: Reactive oxygen species (ROS) production was evaluated using the 2′,7′-dichlorofluorescein diacetate (DCFH-DA) probe. In the cytoplasm, DCFH-DA is hydrolyzed producing 2′,7′-dichlorodihydrofluorescein (DCFH) that, in the presence of ROS, is easily oxidized to the highly fluorescent 2′,7′-dichlorofluorescein (DCF).
as §1

| Structure (SMILES) | −Log Pe ± SD [2] | also measured |
| --- | --- | --- |
| CC(=O)Nc1ccccc1 [Acetanilide] |  | CHI (IAM) [1]: 11.57 |
| CC(=O)[C@H]1CC[C@H]2[C@@H]3CCC4=CC(=O)CC[C@]4(C)[C@H]3CC[C@]12C [Progesterone, reference compound] | 4.5 ± 0.44 |  |
| CC(C)NCC(O)COc1cccc2ccccc12 (stereo not drawn) [Propanolol. HCl, reference compound] | 4.6 ± 0.42 |  |
| C=C[C@H]1C[N@@]2CC[C@H]1C[C@@H]2[C@@H](O)c1ccnc2ccc(OC)cc12 [Quinidine. HCl, reference compound] | 4.8 ± 0.39 |  |
| CC(C)(C)OO [t-BHP, tert-butyl hydroperoxide] |  | ROS intracellular levels (HepG2 cells): significant increase in ROS levels; ROS intracellular levels [3]: significant increase in ROS intracellular levels |
